# Literature values in patent publication US20230405025A1, “CANNABINOID-CONTAINING COMPOSITIONS AND USE FOR TREATING AND PREVENTING DISEASES” (priority 2020, published 2023).
# Tested on: presbyopic patient
compound,measurement,setting,value
"CC[C@@H]1C(=O)OC[C@@H]1Cc1cncn1C [Pilocarpine, pilocarpine]",Tolerability,"concentrations above 0.5%, side effects red eyes, ocular pain, brow ache, headache",not tolerated
same,Distance vision,"concentrations effective enough to improve reading ability, eye rendered myopic (Gilmartin et al., 1995)",significant decrease in the eye's distance vision
same,Effect on accommodation of the eye,topical concentrations below 0.5%,minimal effect in the accommodation of the eye
